Reference: patent US11840686B2, “Modulation of prekallikrein (PKK) expression” (Ionis Pharmaceuticals, Inc., priority 2013, dated 2023)
Strand notation (5' to 3'): a small letter for the sugar, then the base; units joined by * are phosphorothioate-linked, units joined directly phosphodiester-linked; [ ] holds rarer units or linkages, { } end groups; capitals alone tell only the bases. e = 2'-O-(2-methoxyethyl) (MOE); [5mC] = 5-methylcytosine; d = 2'-deoxy (DNA)

Tested on: human PKK mRNA
Assay: Antisense inhibition of human PKK mRNA in HepaRG cells, 5,000 nM (Example 2)
Assay type: cell-based
Summary of the method: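 Percent inhibition of PKK mRNA is relative to untreated control, with qRT-PCR (probe set RTS3454) values adjusted to total RNA by RIBOGREEN. Oligonucleotides, fully phosphorothioate 2′-MOE gapmers, were delivered at 5,000 nM by electroporation into 20,000 HepaRG cells/well for about 24 h.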

[1] = Table 7, HepaRG cells, electroporation with 5,000 nM antisense oligonucleotide, approx. 24 hours, PKK mRNA by RT-PCR (RTS3454), relative to untreated control cells
[2] = HepaRG cells, electroporation, 5,000 nM antisense oligonucleotide, approx. 24 hours, primer probe set RTS3454, relative to untreated control cells, Table 11
[3] = HepaRG cells, electroporation with 5,000 nM antisense oligonucleotide, approximately 24 hours, PKK mRNA by RT-PCR (RTS3454), relative to untreated control cells, Table 5 experiment
[4] = HepaRG cells, 5,000 nM antisense oligonucleotide, 5-10-5 gapmers, Table 16
[5] = Table 9 experiment, HepaRG cells, 20,000 cells per well, electroporation with 5,000 nM antisense oligonucleotide, approx. 24 hours, PKK mRNA by RT-PCR (RTS3454), relative to untreated control cells
[6] = Table 10 experiment, HepaRG cells, 20,000 cells per well, electroporation with 5,000 nM antisense oligonucleotide, approx. 24 hours, PKK mRNA by RT-PCR (RTS3454), relative to untreated control cells
[7] = HepaRG cells, electroporation with 5,000 nM antisense oligonucleotide, approximately 24 hours, PKK mRNA by RT-PCR (RTS3454), relative to untreated control cells, Table 6 experiment
[8] = human PKK mRNA in HepaRG cells, 5-10-5 gapmers, Table 14
[9] = HepaRG cells, 5,000 nM antisense oligonucleotide, 5-10-5 gapmers, Table 17
[10] = human PKK mRNA, HepaRG cells, 5-10-5 motif oligonucleotides targeting SEQ ID NO: 1 and 10
[11] = Table 8, HepaRG cells, electroporation with 5,000 nM antisense oligonucleotide, approx. 24 hours, PKK mRNA by RT-PCR (RTS3454), relative to untreated control cells
[12] = Table 13, human PKK mRNA in HepaRG cells, 5-10-5 gapmers

547402 (eT*eT*eT*eA*eG*dA*dA*dT*dG*dG*d[5mC]*dA*dG*dG*dG*eT*eT*e[5mC]*eA*eG; antisense) [compound 547402]
% inhibition [1]: 59%

546418 (eA*eT*eG*eT*eG*dG*d[5mC]*dA*d[5mC]*dT*dG*d[5mC]*dA*dG*dG*e[5mC]*eA*eA*eT*eA; antisense) [compound 546418]
% inhibition (HepaRG cells, electroporation, 5,000 nM antisense oligonucleotide, approx. 24 hours, primer probe set RTS3454, relative to untreated control cells, Table 12): 72%

546370 (antisense eA*e[5mC]*eT*eT*eG*dA*dA*d[5mC]*dT*d[5mC]*dA*dG*dG*dT*dT*eG*eT*eA*eA*eA) [compound 546370]
% inhibition [2]: 34%

547306 (antisense eA*eG*e[5mC]*eA*eA*d[5mC]*d[5mC]*dA*dA*dA*d[5mC]*d[5mC]*dT*dT*dT*eT*e[5mC]*eT*e[5mC]*e[5mC]) [compound 547306]
% inhibition [3]: 62%

547696 (antisense e[5mC]*eA*e[5mC]*eT*eG*dT*d[5mC]*d[5mC]*dT*dA*dT*dA*dA*d[5mC]*dT*eA*eT*eT*eA*e[5mC]) [compound 547696]
% inhibition [4]: 26%

547449 (antisense eT*eT*eT*eT*eA*dT*dT*dT*dG*dT*dG*dA*dG*dA*dA*eA*eG*eG*eT*eG) [compound 547449]
% inhibition [5]: 71%
% inhibition [6]: 73%

547331 (antisense eA*eG*e[5mC]*eA*e[5mC]*dT*dT*dA*dT*dT*dT*dG*dA*dT*dG*eA*e[5mC]*e[5mC]*eA*e[5mC]) [compound 547331]
% inhibition [7]: 47%

547621 (antisense eT*eA*e[5mC]*eT*eA*dG*dT*dT*dT*d[5mC]*d[5mC]*dT*dA*dT*dA*eA*e[5mC]*eA*eG*eT) [compound 547621]
% inhibition [8]: 12%

546882 (eT*eA*eG*eT*eT*dT*d[5mC]*d[5mC]*dT*dA*dT*dA*dA*d[5mC]*dA*eG*eT*eA*eT*e[5mC]; antisense) [compound 546882]
% inhibition [8]: 24%

547024 (eG*eG*eA*eT*eT*dG*dG*dT*dG*dG*d[5mC]*dG*dG*dG*dA*eT*e[5mC]*eG*eG*eT; antisense) [compound 547024]
% inhibition [9]: 56%

547666 (eA*eT*e[5mC]*eA*e[5mC]*dT*dG*dT*dA*d[5mC]*d[5mC]*dT*dA*dT*dA*eA*e[5mC]*eT*eA*eT; antisense) [compound 547666]
% inhibition [10]: 71%

546276 (eT*eG*eG*eA*eG*dA*dA*d[5mC]*d[5mC]*dA*dT*d[5mC]*d[5mC]*dA*dT*eA*eG*eA*eT*eA; antisense) [compound 546276]
% inhibition [11]: 74%

547510 (antisense eA*eT*eG*eA*eG*dG*dA*d[5mC]*d[5mC]*d[5mC]*d[5mC]*d[5mC]*d[5mC]*dA*dG*eG*e[5mC]*eT*e[5mC]*eA) [compound 547510]
% inhibition [2]: 40%

547640 (eT*eG*eT*e[5mC]*e[5mC]*dT*dA*dT*dA*dA*d[5mC]*dT*dA*dT*dA*eA*e[5mC]*eA*eG*eT; antisense) [compound 547640]
% inhibition [10]: 13%

547487 (antisense eT*eG*eT*eG*eT*dT*dT*dG*d[5mC]*dA*dA*dA*d[5mC]*dT*dA*eA*eG*eG*eG*eA) [compound 547487]
% inhibition [5]: 72%
% inhibition [6]: 61%

547654 (eT*eA*eT*e[5mC]*eA*d[5mC]*dT*dG*dT*dA*d[5mC]*d[5mC]*dT*dA*dT*eA*eA*e[5mC]*eA*eG; antisense) [compound 547654]
% inhibition [10]: 53%

546241 (e[5mC]*eA*eG*eG*eT*dA*dA*dA*dG*dT*dT*d[5mC]*dT*dT*dT*eT*eG*e[5mC]*eA*eG; antisense) [compound 546241]
% inhibition [1]: 69%

546138 (eA*eA*eA*e[5mC]*eA*d[5mC]*dA*dA*dT*dT*dG*d[5mC]*dT*dT*d[5mC]*eT*eT*eG*eG*eA; antisense) [compound 546138]
% inhibition [3]: 69%

546252 (eT*e[5mC]*eT*eT*eG*dG*d[5mC]*dA*dA*dA*d[5mC]*dA*dT*dT*d[5mC]*eA*e[5mC]*eT*e[5mC]*e[5mC]; antisense) [compound 546252]
% inhibition [11]: 73%

547744 (eT*eG*eG*eT*eG*dG*dT*dG*dG*dG*dA*dT*dT*dG*dG*eT*eG*eG*e[5mC]*eG; antisense) [compound 547744]
% inhibition [9]: 65%

547754 (eG*eG*eG*eA*eT*dT*dG*dG*dT*dG*dG*dT*dT*dG*dG*eT*eG*eG*e[5mC]*eG; antisense) [compound 547754]
% inhibition [9]: 47%

547491 (antisense e[5mC]*eA*eT*eG*eT*dA*d[5mC]*dT*d[5mC]*dA*dG*d[5mC]*dG*dA*d[5mC]*eT*eT*eT*eG*eG) [compound 547491]
% inhibition [2]: 47%

546381 (antisense eG*eA*eA*eG*eA*dT*dG*d[5mC]*d[5mC]*dA*d[5mC]*dT*d[5mC]*dT*d[5mC]*e[5mC]*eA*eT*eG*e[5mC]) [compound 546381]
% inhibition [2]: 73%

546756 (eA*eT*eA*eA*eG*d[5mC]*dA*dT*d[5mC]*dT*d[5mC]*dT*d[5mC]*dT*dG*eA*e[5mC]*e[5mC]*eT*eA; antisense) [compound 546756]
% inhibition [12]: 47%

547516 (antisense eG*eA*eT*eG*e[5mC]*dA*dA*dA*dG*dA*dA*dG*dA*dT*dG*e[5mC]*e[5mC]*eA*e[5mC]*eT) [compound 547516]
% inhibition [2]: 48%

547016 (eG*eT*eA*eG*eG*dT*dG*dG*dT*dG*dG*dG*dA*dT*dT*eG*eG*eT*eG*eG; antisense) [compound 547016]
% inhibition [9]: 62%

546892 (eA*e[5mC]*eT*eG*eT*d[5mC]*d[5mC]*dT*dA*dT*dG*dT*d[5mC]*dA*d[5mC]*eT*eG*eT*eA*e[5mC]; antisense) [compound 546892]
% inhibition [10]: 82%

546763 (eG*e[5mC]*eT*eT*e[5mC]*d[5mC]*d[5mC]*d[5mC]*dA*dA*dT*dA*d[5mC]*dT*dT*eG*e[5mC]*eT*eG*eG; antisense) [compound 546763]
% inhibition [12]: 84%

547590 (eA*eT*eA*eA*e[5mC]*dT*dA*dT*dA*dA*d[5mC]*dA*dG*dT*dA*eT*e[5mC]*eA*e[5mC]*eT; antisense) [compound 547590]
% inhibition [8]: 0%

546862 (eA*eA*e[5mC]*eT*eA*dT*dA*dA*d[5mC]*dA*dA*dT*dA*dT*d[5mC]*eA*e[5mC]*eT*eG*eT; antisense) [compound 546862]
% inhibition [8]: 0%

546183 (antisense e[5mC]*eA*e[5mC]*eT*eT*dA*dT*dT*dT*dG*dA*dT*dG*dA*d[5mC]*e[5mC]*eA*e[5mC]*eA*eT) [compound 546183]
% inhibition [7]: 69%

547271 (eT*eT*eA*eA*eA*dA*dA*dT*dG*dA*dA*d[5mC]*dG*dG*dT*e[5mC]*eT*eT*e[5mC]*eA; antisense) [compound 547271]
% inhibition [3]: 60%

547508 (antisense e[5mC]*e[5mC]*e[5mC]*e[5mC]*eA*dG*dG*d[5mC]*dT*d[5mC]*dA*dG*dA*dA*dT*eT*eT*eG*eA*e[5mC]) [compound 547508]
% inhibition [2]: 69%

546390 (eG*eT*e[5mC]*eA*eG*d[5mC]*d[5mC]*d[5mC]*d[5mC]*dT*dG*dG*dT*dT*dA*e[5mC]*eG*eG*e[5mC]*eG; antisense) [compound 546390]
% inhibition [2]: 70%

547691 (antisense eA*e[5mC]*eT*eG*eT*dA*dA*d[5mC]*dA*dA*dT*dA*dT*d[5mC]*dA*e[5mC]*eT*eG*eT*e[5mC]) [compound 547691]
% inhibition [4]: 36%

546336 (antisense eT*e[5mC]*eA*eT*eT*dT*dG*dT*dT*dA*d[5mC]*d[5mC]*dA*dA*dA*eG*eG*eA*eA*eT) [compound 546336]
% inhibition [5]: 66%
% inhibition [6]: 73%

547429 (eA*eA*eT*e[5mC]*eT*d[5mC]*dA*dA*dA*dG*dA*dG*dT*dA*dA*e[5mC]*e[5mC]*eA*eG*eA; antisense) [compound 547429]
% inhibition [11]: 81%

547726 (eG*e[5mC]*eA*eG*eG*dA*dT*dT*dG*dG*dT*dG*dG*dT*dG*eG*eA*eA*eT*eT; antisense) [compound 547726]
% inhibition [9]: 0%

548725 (DNA eA*eT*e[5mC]*dA*d[5mC]*dT*dG*dT*dA*d[5mC]*dT*dA*dG*eT*eT*eT*e[5mC]; antisense) [compound 548725]
% inhibition (HepaRG cells, 5,000 nM antisense oligonucleotide, human PKK mRNA, Table 18): 32%

548750 (antisense e[5mC]*eT*eG*eT*dA*d[5mC]*dT*dA*dG*dT*dT*dT*d[5mC]*d[5mC]*eT*eA*eT*eA) [compound 548750]
% inhibition (human PKK mRNA, HepaRG cells, 5,000 nM antisense oligonucleotide, Table 18): 62%

546143 (eG*eG*eA*eA*eA*d[5mC]*dT*dG*dT*dA*dG*d[5mC]*dA*dA*dA*e[5mC]*eA*eA*eG*eG; antisense) [compound 546143]
% inhibition [3]: 46%

546749 (eG*e[5mC]*eT*eG*eG*dT*d[5mC]*d[5mC]*dT*dT*dG*dA*dA*d[5mC]*d[5mC]*e[5mC]*e[5mC]*eG*eT*eG; antisense) [compound 546749]
% inhibition [12]: 53%
